# Literature values as cited in patent publication US20070092561A1, “Water-Soluble Aspirin Composition” (priority 2005, published 2007).
# Where two headings read alike, the source gives them in different places.
structure (smiles),measurement,setting,value
CC(=O)Oc1ccccc1C(=O)O [aspirin],"occurrence of side-effects (gastric irritation, inflammation, heartburn, nausea, pain)",aspirin users,2-10%
same,"occurrence of side-effects (gastric irritation, inflammation, heartburn, nausea, pain)",in chronic arthritis,about 25%
